Key:
[1] = system: monocytes; test: Phagocytosis assay (pHrodo E. coli Red BioParticles); type: in vivo, human; settings: ex vivo, d28, 1000 mg/day oral, compared with placebo cohort
Procedure: The pHrodo™ E. coli Red BioParticles® Phagocytosis Kit for Flow Cytometry (Invitrogen) was used to assess phagocytotic capacity of monocytes. The particles were inactivated, unopsonized Escherichia coli (K-12 strain) that enables measurement of phagocytic activity based on acidification of particles as they are ingested. Thawed PBMCs were immediately used for analysis. 25 μL of E. coli Red BioParticles® were added to 0.25×10^6 PBMCs in 225 μl PBMC medium. As a negative control, 20 μL of PBS were added to 225 μl of PBMCs. Incubation was performed at 37° C. for 45 min, followed by immediate transfer on ice. Cells were then washed in FACS buffer, centrifuged at 1500 rpm for 5 min, followed by another wash step. Cells were stained for 10 min at 4° C. After washing, cells were reconstituted in PBS and subjected to analysis using a Cytek Aurora fow cytometer. Monocytes were identified as CD3−, CD16+ cells.

[2] = system: DNA methylation; test: DNA methylation biological age clocks (TruDiagnostic); type: in vivo, human; settings: d28 vs start of intervention, 1000 mg/day oral; no decrease with placebo
Excerpt: Blood taken from the participants at baseline and the last study visit (d28) time points were applied to dried blood cards and processed by TruDiagnostic™. The test uses DNA methylation data analysis to calculate biological ages using the PhenoAge 2nd generation clock and the Hannum 1st generation clock. The Urolithin A intervention group's biological (immune cell-blood based) age was reduced by a median of about 2 years from the start of the intervention, as calculated by the PhenoAge clock (FIG. 11A). […] A decrease in biological age was not observed in the Placebo group.

[3] = Clinical trial adverse event reporting; settings: Group A n = 25; 1000 mg/day oral, 28 days
[4] = system: T cells; test: T cell stimulation assay (αCD3/αCD28 beads, four days); type: in vivo, human; settings: PBMCs ex vivo
Procedure: To study the antigen response of T cells, 0.5×10^6 thawed PBMCs were pre-stained with CellTrace Violet (C34557 ThermoFisher Scientific) according to the manufacturer's instructions. After washing, they were plated in a 24 well plate for 24 h to deplete monocyte populations by plastic adherence. Next, cells in suspension were transferred to a new tube and centrifuged at 350 g for 5 min, followed by reconstitution in fresh T cell medium. Cells were stimulated with human αCD3/C28 stimulation beads (Dynabeads, ThermoFirsher) for four days, using a ratio of 25 μl Beads per 0.5×10^6 cells. Following the stimulation period, magnetic beads were discarded via magnetic separation and cells were stained with PE-Cy7 CD4, APC-Cy7CD8, CD45RA FITC, CCR7 AF700 and live/dead ef780. To study cytokine expression, Brefeldin A (Biolegend) was added to stimulated PBMCs for the last 3 hours. Cells were then washed and stained using the panel above, while intracellular staining for cytokine assessment was performed with BD Cytofix/Cytoperm (BD) with 20 min fixation and overnight incubation with αIL-4-CF594, αIFNγ-PE (XMG1.2; 45-7311-82; eBioscience) and αTNFa-APC (MP6-XT22; 563944; BD). Finally, samples were fixed with 1% PFA until data acquisition. To functionally characterize the human immune system after systemic UA supplementation further, proliferative capacity and cytokine secretion of T cells was assessed. PBMCs from both intervention groups were incubated in the presence of αCD3/αCD28 stimulation beads for a total of four days (FIG. 10A).

[5] = system: PBMCs; test: Single cell RNA sequencing of PBMCs; type: in vivo, human
[6] = system: PBMCs; test: Mitochondrial analysis of PBMCs (Mitotracker Green, MitotrackerRedCMXROS, PGC-1α, Parkin); type: in vivo, human
Procedure: PBMCs were thawed as depicted above and cultured in T cell medium (RPMI (ThermoFisher Scientific) 10% FBS (South America origin), 10 mM Hepes (Sigma), 1× Non-Essential Amino Acid, 1 mM Sodium Pyruvate, 50 μM β-Mercaptoethanol, 100 U/ml penicillin, 100 μg/ml streptomycin and 2 mM Glutamax (ThermoFisher Scientific)) overnight. After washing, cells were reconstituted in T cell medium containing respective staining agent: for labelling of mitochondrial mass, Mitotracker Green (Invitrogen) was used at a concentration of 40 nM for 30 mins at 37° C. Mitochondrial membrane potential was assessed via MitotrackerRedCMXROS. Cells were then stained with a combination of CD3 vFlour 450, PE-Cy7 CD4, APC-Cy7 CD8, CCR7 APC, CD45RA FITC and Ghost Violet510. To assess expression of peroxisome proliferator-activated receptor gamma coactivator 1-alpha (PGC-1α), cells were rested for four hours after thawing, then stained with the panel above for 15 mins at 4° C. After washing in FACS buffer, cells were permeabilized and fixed using the eBioscience™ Foxp3/Transcription Factor Staining Buffer Set, followed by staining with PGC-1α (sc-518025; D-5; Santa Cruz) antibody. To assess the expression of Parkin, cells were first stained with CD4 BV786, CD8 PECF 594, CD3 BUV 395, CD45RA FITC, CD14 eF450 and live/dead 780, followed by permeabilization and fixation with transcription factor buffer set kit (BD Biosciences). For mitochondrial analysis, cells were finally fixed in 1% PFA and analyzed on a Cytek Aurora cytometer. Samples were unmixed using reference controls generated in combination with stained Ultracomp beads (Fisher Scientific, 01-2222-41).

[7] = system: plasma cytokines; test: Plasma cytokine measurements (LEGENDplex); type: in vivo, human; settings: d28 vs baseline, 1000 mg/day oral
Procedure: Inflammatory cytokines were measured using LEGENDplex™ HU Essential Immune Response Panel (BioLegend) according to the manufacturer's instructions. Plasma samples were diluted 1:1 in assay diluent as recommended and technical duplicates were used for both the standard curve and experimental samples. Analysis was performed with the provided software.

[8] = after 28 days of UA compared to placebo
[9] = after 28 days, 1000 mg/day oral

Structure (SMILES): O=c1oc2cc(O)ccc2c2ccc(O)cc12 [Urolithin A]
- Monocyte phagocytosis of E. coli particles [1]: significantly enhanced
- Reduction of biological (immune cell-blood based) age, PhenoAge clock, median [2]: about 2 years
- Post-emergent AEs: Infections and Infestations, Covid-19 [3]: 1 (4%) n (%)
- CD8+ TCM/TEM phenotype distribution after CD3 receptor engagement [4]: no treatment-specific distribution pattern
- T cell proliferation ([4]; UA vs placebo, baseline vs d28): no difference
- CD8+ expression of IFN-γ when stimulated ([4]; baseline vs d28): remained unchanged
- IL-4 production of antigen challenged CD8+ cells ([4]; baseline vs d28, no change with placebo): reduced
- Activation markers CD69 and CXCR4 in NK cells ([5]; after 28 days of UA): reduction
- Electron transport chain components (MT-ND5, MT-CO1, MT-CO2) in naïve T cells ([5]; after 28 days of UA): induced
- Immediate-early genes (NR4A2, DUSP1, FOS, JUN, NFKBIA) in NK cells ([5]; after 28 days of UA): reduction
- Inflammatory gene signature (MX1, XAF1, ISG15, TNSF10) in B cells ([5]; after 28 days of UA): downregulated
- Interferon response pathway genes (IFITM2, IER2, STAT1) in monocytes ([5]; after 28 days of UA): Strongest downregulation
- Mitochondrial genes (MT-CYB, MT-ND5, MT-ATP8, MT-CO1) and NAMPT in monocytes ([5]; after 28 days of UA): strong upregulation
- Protein Kinase A (PKA) signaling and other immune inhibitory pathways, CD8+ T cells ([5]; after 28 days of UA): strongly inhibited
- T cell receptor (TCR) signaling, canonical pathway analysis, CD8+ T cells ([5]; after 28 days of UA): activation
- cAMP-responsive element modulator (CREM) in CD8+ TEM subset ([5]; after 28 days of UA): downregulation
- Differentially expressed genes in CD8+ T cells, down [5, 8]: 37 genes
- Differentially expressed genes in CD8+ T cells, up [5, 8]: 52 genes
- Genes associated with T cell exhaustion, suppression and hypofunction (NR4A2, CREM, TGFB1, METRNL) in CD8+ T cells [5, 8]: downregulated
- IL7R in CD8+ T cells [5, 8]: induction
- Wnt-associated stemness transcription factors TCF7 and LEF1 in CD8+ T cells [5, 8]: upregulation
- Differentially expressed genes in CD8+ T cells, total ([5]; after 28 days of UA compared to placebo, five participants): 89 genes
- Mitochondrial content in several CD8+ subsets (TN, TEM, TCM, TEFF) [6, 9]: Increased
- Mitochondrial content of CD4+ cells [6, 9]: no significant change
- Mitochondrial mass: proportion of MTGHi cells in CD8+ cells ([6]; after 28 days, 1000 mg/day oral, absent in placebo): increased
- PGC-1α expression in CD8+ cells ([6]; after intervention period (d28), 1000 mg/day oral, no change with placebo): stronger expression
- Mitochondrial membrane potential (MMP) in CD8+ cells ([6]; d28, 1000 mg/day oral): significantly lower
- PGC-1α in CD4+ cells ([6]; d28, 1000 mg/day oral): no significant induction
- Reduction of MMP in CD4+ cells ([6]; d28, 1000 mg/day oral): absent
- Reduction of MMP in CD8 subsets ([6]; d28, 1000 mg/day oral): retained
- Parkin protein expression ([6]; study visits at seven days or 28 days, 1000 mg/day oral): Change in Parkin protein expression was detected
- Plasma IFN-γ level [7]: significantly lower
- Plasma IL-1β level [7]: significantly lower
- Plasma IL-2 level [7]: significantly lower
- Plasma IL-6 level [7]: No difference
- Plasma IL-8 level [7]: No difference
- Plasma IL-10 level [7]: significantly lower
- Plasma TNF-α level [7]: significantly lower
- Plasma interferon-gamma induced protein (IP-10) level [7]: No difference
- Plasma monocyte chemoattractant protein-1 (MCP-1) level [7]: No difference
